In brackets after ≈: the same amount, converted by molar mass. Several values for one entry are separate records, joined by “and”; a condition that tells them apart may be missing. Equal values may be shown once.
Key:
KB = experiment: MTT assay, mouth (KB); assay type: cell-based, human
Description: (§1) Cells. HTB-9 (bladder), HeLa-S3 (cervix), DU145 (prostate), H460 (lung), MCF-7 (breast), K562 (leukemia), HCT116 (colon), HepG2 (liver), U2OS (bone), T98G (brain), SK-MEL-5 (Skin) and OVCAR 3, ES2 (ovary), Pancreas (Capan), Mouth (KB), Kidney(A498).
(§2) MTT Assay. The procedure for MTT assay followed the method described by Carmichael et al. (1987) with modifications. The cells were seeded into a 96-well plate at for 24 hours before drug-treatment. The cells were then exposed to the drugs for 48, 72, or 96 hours. After the drug-treatment, MTT (0.5 mg/mL) was added to cultures and incubated for an hour. The formazan (product of the reduction of tetrazolium by viable cells) formed and was dissolved with DMSO and the O.D. at 490 nm, and was measured by an ELISA reader. The MTT level of the cells before drug-treatment was also measured (T0). The % cell-growth (%G) is calculated as: %G = (TD-T0 / TC-T0) x 100(1), where TC or TD represents O.D. readings of control or drug-treated cells. When T0 > TD, then the cytotoxicity (LC) expressed as % of the control is calculated as: %LC = (TD-T0 / T0) × 100(2).

MCF-7 = experiment: MTT assay, breast (MCF-7); assay type: cell-based, human
Description: as §1, §2

HepG2 = experiment: MTT assay, liver (HepG2); assay type: cell-based, human
Description: as §1, §2

A498 = experiment: MTT assay, kidney (A498); assay type: cell-based, human
Description: as §1, §2

HeLa = experiment: MTT assay, cervix (HeLa); assay type: cell-based, human
Description: as §1, §2

OVCAR3 = experiment: MTT assay, ovary (OVCAR3); assay type: cell-based, human; settings: for IC50 of ovary (OVCAR3): MTT
Description: as §1, §2

ES2 = experiment: MTT assay, ovary (ES2); assay type: cell-based, human
Description: as §1, §2
(§3) Method: A. Cells • -WI38 is a Normal Lung fibroblast. Cells were grown in MEM medium supplemented with 10% FCS, antibiotics and glutamine. 20 K cells were seeded per well (96-welled plate) for one day before drug-treatment • -ES2 is an Ovary Clear cells carcinoma. Cells were grown in RPMI-1640 medium supplemented with 10% FCS, antibiotics and glutamine. 10 K cells were seeded per well (96-welled plate) for one day before drug-treatment.
(§4) B. Drug treatment: • -Drug: Tig-S. stored as 1000x stock solution in DMSO. • -Drug concentration used: from 0.15 - 20 ug/ml. • -Drug-treatment was carried out for 2 days (ES2) or 6 days (WI38). For the 6 days incubation, cells were fed with fresh medium (with drug) on day 3 and 5.
(§5) C. At the end of the drug-treatment, cytotoxic test was performed with MTT assay.

H460 = experiment: MTT assay, lung (H460); assay type: cell-based, human; settings: for IC50 of lung (H460): MTT
Description: as §1, §2
Methods: • A. Cells • -- H460 cells are derived from a Human Lung large cell carcinoma. Cells were grown in RPMI 1640 medium supplemented with 10% FCS, antibiotics and glutamine. 5000 cells were seeded in a well (96-welled plate) for one day before drug-treatment • B. Drug treatment: • -- Drug: Tig-S (stored as a 1000x stock solution in DMSO) was used. • -- Drug concentration used: from 0.15 - 20 ug/ml. • -- Drug-treatment was carried out for 1, 2 and 4 days. For the 4 days incubation, cells were fed with fresh medium (with drug) on day 2. • C. At the end of the drug-treatment, cytotoxic test was performed with MTT assay. Results: • 1. Tig-S inhibits H460 cells’ growth with the IC50 of drug 3 ug/ml. • 2. […] cells growth inhibition was observed beyond drug 5 ug/ml. • 3. No dead cell was found at drug concentration in 20 ug/ml.

HTB-9 = experiment: MTT assay, bladder (HTB-9); assay type: cell-based, human
Description: as §1, §2

Erythrocytes (RBC) = experiment: The haemolytic assay
Description: Erythrocytes (RBC) were isolated from human blood (EDTA whole blood, collected randomly). 50 ul of the 10% RBC suspension (in PBS) was added to 2 ml of sample solutions (concentration range from 0.1 ug/ml to 400 ug/ml) in PBS. The mixture was vortexed briefly and sat for 60 min at room temperature. The mixture was spun at 3 K for 10 min and the relative amounts of lysed hemoglobin in the supernatant were measured at 540 nm.

WI38 = experiment: MTT assay, normal human lung fibroblast (WI38); assay type: cell-based
Description: as §3, §4, §5

| Molecule | IC50 of mouth (KB) (KB) [µg/mL] | IC50 of breast (MCF-7) (MCF-7) [µg/mL] | IC50 of liver (HepG2) (HepG2) [µg/mL] | IC50 of kidney (A498) (A498) [µg/mL] | IC50 of cervix (HeLa) (HeLa) [µg/mL] | IC50 of ovary (OVCAR3) (OVCAR3) [µg/mL] | IC50 of ovary (ES2) (ES2; MTT) | IC50 of lung (H460) (H460) [µg/mL] | IC50 of bladder (HTB-9) (HTB-9) [µg/mL] | hemolytic activity (Erythrocytes (RBC); up to 20 ug/ml) | further results |
| --- | --- | --- | --- | --- | --- | --- | --- | --- | --- | --- | --- |
| CC=C(C)C(=O)OCC1(C)C(O)CCC2(C)C1CCC1(C)C2CC=C2C3CC(C)(C)C(O)C(OC(=O)C(C)=CC)C3(COC(=O)C(C)=CC)C(O)CC21C (stereo not drawn) [Tig-T] | 13 | 20 | 26 | 15 | 18 | 25 | 14 µg/mL | 21 | – | – | – |
| CC=C(C)C(=O)OCC1(C)C(O)CCC2(C)C1CCC1(C)C2CC=C2C3CC(C)(C)C(O)C(O)C3(CO)C(O)CC21C (stereo not drawn) [Tig-N] | 9 | 13 | 18 | 11 | 15 | 18 | 9 µg/mL | 13 | 7.5 | do not have hemolytic activity | – |
| CC=C(C)C(=O)OCC1(C)C(O)CCC2(C)C1CCC1(C)C2CC=C2C3CC(C)(C)C(OC(=O)C(C)=CC)C(O)C3(CO)C(O)CC21C (stereo not drawn) [Tig-S] | – | 6.3 | 8.5 | 4.8 | 7 | 6.5 | – | 5.6 | 3.5 | – | IC50, ovarian cancer (OCAR3) cells' growth (OVCAR3; FIG. 37): 2.5 µg/mL (≈ 3.73 µM); IC50, WI38 cells (WI38; 6 days drug treatment, MTT): 1.5 µg/mL (≈ 2.24 µM); % of the control cell growth, WI38 (WI38; at 10 ug/ml): about 55%; MTT OD as % of the original value, WI38 (WI38; at 20 ug/ml): about 90%; cell loss or death, WI38 (WI38; at 20 ug/ml): about 10%; cells died, WI38 (WI38; with 10 ug/ml): 10%; IC50, ES2 cells (ES2; 2 days drug treatment, MTT): 0.3 µg/mL (≈ 0.447 µM); IC100, ES2 cells (ES2; MTT OD after treatment equal to OD before treatment, 2 days): 0.16 to 0.3 µg/mL and 0.15 to 0.3 µg/mL; IC50 in ES2 cells (ES2; MTT assay with low doses of Tig-S): ~0.1 µg/mL (≈ 0.149 µM); % of the control cell growth, ES2 (ES2; at 10 ug/ml): 10%; MTT OD as % of the original value, ES2 (ES2; at 10 ug/ml): 12%; IC50, lung H460 cells growth (H460; 4 days): 3 µg/mL (≈ 4.47 µM); IC50, H460 cells' growth (H460; Experiment 32, treatment 1, 2 and 4 days): 3 µg/mL (≈ 4.47 µM); dead cells, H460 (H460; at 20 ug/ml): No dead cell; IC50, lung H460 cells growth (H460; one day): 3.4 µg/mL (≈ 5.07 µM) |
| 24,28-O-Tigloyl-3β,16α, 21β, 22a, 24β, 28-hexahydroxyolean-12-ene [Tig-R] | 3 | 4.5 | 6 | 3.5 | – | 5.8 | 2.8 ug/ml and about 2.8 ug/ml | 4.8 | 2.5 | do not have hemolytic activity | hemolytic activity (Erythrocytes (RBC); in words, no concentration given): no hemolytic activity; IC50 in normal human fibroblast cells (WI38) (WI38; MTT): 10 to 15 µg/mL |

Source: patent US20230340012A1, “NATURAL AND SYNTHETIC COMPOUNDS FOR TREATING CANCER AND OTHER DISEASES” (PACIFIC ARROW LIMITED, priority 2009, published 2023)
